From the NIST ThermoML archive (doi:10.1021/je049925a)

Conditions: Liquid; for speed of sound: Sing-around technique in a fixed-path interferometer; for vapor or sublimation pressure: Closed cell (Static) method

CC(F)F [1,1-difluoroethane]
Conditions | speed of sound [m/s]
243.15 K, 138 kPa | 920.2
243.15 K, 442 kPa | 922.3
243.15 K, 595 kPa | 923.2
243.15 K, 1302 kPa | 927.8
243.15 K, 1815 kPa | 931
243.15 K, 2160 kPa | 933.1
243.15 K, 2762 kPa | 936.9
243.15 K, 3217 kPa | 939.9
243.15 K, 3854 kPa | 943.7
243.15 K, 4428 kPa | 947.1
243.15 K, 5359 kPa | 952.7
243.15 K, 6355 kPa | 958.6
243.15 K, 7657 kPa | 966.2
243.15 K, 8846 kPa | 973.1
243.15 K, 10231 kPa | 981
243.15 K, 11681 kPa | 989
243.15 K, 13279 kPa | 997.6
243.15 K, 14943 kPa | 1005.5
243.15 K, 16723 kPa | 1015.9
243.15 K, 17442 kPa | 1019.5
243.15 K, 18731 kPa | 1026.3
243.15 K, 20194 kPa | 1033.7
243.15 K, 22819 kPa | 1046.4
243.15 K, 25117 kPa | 1058.6
243.15 K, 27154 kPa | 1068.9
243.15 K, 30242 kPa | 1084.3
263.15 K, 407 kPa | 822.3
263.15 K, 581 kPa | 823.3
263.15 K, 759 kPa | 824.6
263.15 K, 928 kPa | 825.5
263.15 K, 1550 kPa | 831.3
263.15 K, 2228 kPa | 835.9
263.15 K, 2461 kPa | 837.6
263.15 K, 3130 kPa | 842.9
263.15 K, 3429 kPa | 844.7
263.15 K, 3914 kPa | 848.6
263.15 K, 5038 kPa | 856.2
263.15 K, 5789 kPa | 861.4
263.15 K, 6568 kPa | 866.7
263.15 K, 7201 kPa | 871
263.15 K, 7967 kPa | 876.3
263.15 K, 8899 kPa | 881.9
263.15 K, 9893 kPa | 888.5
263.15 K, 11531 kPa | 898.7
263.15 K, 13616 kPa | 912
263.15 K, 15466 kPa | 922.7
263.15 K, 17421 kPa | 934.4
263.15 K, 18552 kPa | 941
263.15 K, 19791 kPa | 947.4
263.15 K, 21881 kPa | 959.5
263.15 K, 25895 kPa | 980.9
263.15 K, 27572 kPa | 989.5
263.15 K, 29409 kPa | 998.8
283.15 K, 547 kPa | 722.7
283.15 K, 750 kPa | 724.6
283.15 K, 1038 kPa | 727.4
283.15 K, 1402 kPa | 731.2
283.15 K, 1697 kPa | 733.8
283.15 K, 2322 kPa | 739.5
283.15 K, 2793 kPa | 743.7
283.15 K, 3256 kPa | 747.8
283.15 K, 3975 kPa | 754
283.15 K, 4329 kPa | 756.9
283.15 K, 5020 kPa | 762.5
283.15 K, 6373 kPa | 773.5
283.15 K, 7420 kPa | 781.9
283.15 K, 8061 kPa | 787
283.15 K, 9151 kPa | 795.4
283.15 K, 10246 kPa | 803.6
283.15 K, 11356 kPa | 811.6
283.15 K, 13100 kPa | 824
283.15 K, 14824 kPa | 835.9
283.15 K, 16147 kPa | 844.8
283.15 K, 18020 kPa | 857
283.15 K, 19869 kPa | 868.3
283.15 K, 22681 kPa | 885.6
283.15 K, 24751 kPa | 897.6
283.15 K, 27174 kPa | 911.6
283.15 K, 29569 kPa | 925.1
298.15 K, 660 kPa | 648
298.15 K, 1153 kPa | 653.4
298.15 K, 1656 kPa | 658.8
298.15 K, 2142 kPa | 663.6
298.15 K, 3104 kPa | 674.1
298.15 K, 3609 kPa | 679.2
298.15 K, 4115 kPa | 684.3
298.15 K, 5023 kPa | 692.9
298.15 K, 5998 kPa | 702.2
298.15 K, 6939 kPa | 710.9
298.15 K, 8037 kPa | 720.6
298.15 K, 9271 kPa | 731.2
298.15 K, 10321 kPa | 740.1
298.15 K, 11735 kPa | 751.5
298.15 K, 13300 kPa | 763.9
298.15 K, 14789 kPa | 775.3
298.15 K, 16388 kPa | 787.1
298.15 K, 18041 kPa | 799
298.15 K, 19521 kPa | 809.3
298.15 K, 20530 kPa | 816.2
298.15 K, 22781 kPa | 831.1
298.15 K, 24289 kPa | 840.6
298.15 K, 26870 kPa | 856.4
298.15 K, 30717 kPa | 878.8
313.15 K, 1222 kPa | 575.1
313.15 K, 1721 kPa | 581.7
313.15 K, 2288 kPa | 589.2
313.15 K, 2776 kPa | 595.3
313.15 K, 3587 kPa | 605.3
313.15 K, 4184 kPa | 612.4
313.15 K, 4942 kPa | 621
313.15 K, 6282 kPa | 635.8
313.15 K, 7106 kPa | 644.5
313.15 K, 8134 kPa | 655.1
313.15 K, 9180 kPa | 665.6
313.15 K, 9927 kPa | 672.7
313.15 K, 11390 kPa | 686.3
313.15 K, 12765 kPa | 698.6
313.15 K, 15195 kPa | 719.2
313.15 K, 16072 kPa | 726.4
313.15 K, 17264 kPa | 736
313.15 K, 19072 kPa | 749.8
313.15 K, 21055 kPa | 764.7
313.15 K, 22659 kPa | 776.2
313.15 K, 25122 kPa | 793.3
313.15 K, 27530 kPa | 808.2
313.15 K, 29895 kPa | 822.3
333.15 K, 2129 kPa | 478.7
333.15 K, 2606 kPa | 487.2
333.15 K, 3860 kPa | 507.8
333.15 K, 4725 kPa | 520.6
333.15 K, 5932 kPa | 538
333.15 K, 7142 kPa | 552.1
333.15 K, 8008 kPa | 565.1
333.15 K, 9016 kPa | 577.2
333.15 K, 10079 kPa | 589.7
333.15 K, 11228 kPa | 602.3
333.15 K, 13279 kPa | 623.8
333.15 K, 15330 kPa | 643.8
333.15 K, 17092 kPa | 660.1
333.15 K, 18393 kPa | 671.6
333.15 K, 19875 kPa | 684.3
333.15 K, 22222 kPa | 702.8
333.15 K, 24752 kPa | 723.7
333.15 K, 24836 kPa | 723.7
333.15 K, 26902 kPa | 738.8
333.15 K, 29698 kPa | 758.6

Conditions | vapor or sublimation pressure [kPa]
243.15 K | 73
263.15 K | 179
283.15 K | 372
298.15 K | 595
313.15 K | 907
333.15 K | 1499
